Data reported in publication PMC13091788 (NPJ Aging, 2026).

What was measured:
[1] = design: method as in PMID 24593257; details: cited from earlier work
C2C12 cells [2] = assay: Mitochondrial morphology analysis (anti-Tom20, MiNA); assay type: cell-based, mouse; details: C2C12, Q-BRB or AcA-BRB 10 μM, 48 h
Experimental: Cells were fixed with 4% paraformaldehyde in PBS for 15 min at 37 °C, washed three times with PBS, and permeabilized with 0.1% Triton X-100 in PBS for 10 min at room temperature (RT). After three additional washes with PBS, cells were blocked with 10% bovine serum albumin (BSA) in PBS for 10 min at RT. Cells were incubated with anti-Tom20 primary antibody (1:750 dilution, 11802-1-AP, Proteintech) in PBS containing 5% BSA for 1 h at RT, followed by three PBS washes. Hoechst 33342 (1:2000 dilution) and Alexa Fluor-conjugated secondary antibody (1:500 dilution, A11029, Invitrogen) in PBS containing 5% BSA were applied for 30 min at RT.
After three final PBS washes, cells were mounted with Fluorescent Mounting Medium (S3023, Dako), and imaged using an FV3000 confocal laser scanning microscope (Olympus). Images were acquired as Z-stacks with 0.2 μm intervals and reconstructed into maximum intensity projections using Fiji/ImageJ software.
Mitochondrial morphology was quantified using the MiNA plugin for Fiji (https://imagej.net/plugins/mina). Thirty cells per group were randomly selected for analysis. Average mitochondrial length and other morphological parameters were calculated according to the plugin’s standard analysis pipeline.

C2C12 cells [3] = assay: Mitochondrial ROS (4-HNE in isolated mitochondrial fractions); assay type: cell-based, mouse; details: C2C12, Q-BRB or AcA-BRB 5 or 10 μM, 24 h
Text: Proteins in sample buffer were separated by SDS-PAGE and transferred to Immobilon-P PVDF membranes (IPVH00010, Millipore). Blots were probed with the indicated antibodies, and protein bands on the blot were visualized using Chemi-Lumi One L (07880-70, Nacalai Tesque) or Immobilon Western Chemiluminescent HRP Substrate (WBKLS0500, Millipore). Band images were captured using a LuminoGraph I imager (WSE-6100, ATTO). Relative band intensities were quantified using Fiji/ImageJ software. Unprocessed western blot images corresponding to the data presented in the main and supplementary figures are provided in Supplementary Figures 11–16. Mitochondria were isolated using differential centrifugation. Cells were washed twice with ice-cold PBS, harvested by scraping, and collected by centrifugation at 500 × g for 5 min at 4 °C. The resulting cell pellets were resuspended in ice-cold mitochondrial isolation buffer (250 mM sucrose, 10 mM HEPES-KOH pH 7.4, 1 mM EDTA, and protease inhibitor cocktail) and incubated on ice for 10 min. Cells were mechanically disrupted on ice using a 27 G needle. The homogenates were centrifuged at 800 × g for 10 min at 4 °C to remove nuclei and cellular debris. The supernatants were transferred to new tubes and centrifuged at 8000 × g for 10 min at 4 °C to obtain the mitochondrial fraction. […] Protein concentration was measured using the BCA Protein Assay Kit (Takara Bio).

[4] = tested on: 24-month-old male C57BL/6 N mice; assay: Age-related cardiac dysfunction in aged mice; assay type: in vivo, mouse
Text: All experimental procedures were approved by the Ethics Review Committee for Animal Experimentation at Kumamoto University, Kumamoto, Japan (approval No. A 2024-083). Procedures followed the guidelines and recommendations outlined by the ILAR Guide for the Care and Use of Laboratory Animals (8th Edition, 2011). Prior to tissue collection, mice were euthanized under isoflurane anesthesia, followed by cervical dislocation to ensure rapid euthanasia, a procedure also employed during sacrifice for tissue harvesting. Euthanasia was performed when animals met the established criteria for humane endpoints, specifically a body weight loss exceeding 20% over a 3-day period or 25% over a 1-week period, in accordance with the Kumamoto University Ethics Review Committee for Animal Experimentation above. All animals fed a normal diet (CE-2, CLEA) were randomly assigned to two groups: tap water only and tap water supplemented with AcA-BRB (0.5 mg/mL). Mice were housed in an animal facility with lighting cycles automatically controlled (12 h light/12 h dark), maintained at a stable temperature of 22 ± 2 °C and a relative humidity of 40–80%. C57BL/6NJcl wild-type (WT) male mice aged 2, 20, and 24 months were used in this study. Mice were preconditioned by chest hair removal with a topical depilatory (FUJIFILM VisualSonics), anesthetized with 1.5–2.5% isoflurane administered via inhalation, and maintained in a supine position on a dedicated animal handling platform with limbs immobilized for electrocardiogram gating during imaging. Body temperature was kept constant by relaying signals from a rectal probe to a heating pad, while heart and respiratory rates were continuously monitored. Transthoracic echocardiography was performed using a high-frequency ultrasound system dedicated to small-animal imaging (VisualSonics Vevo 3100, FUJIFILM VisualSonics) using a MS 400 linear array transducer (18–38 MHz). M-mode recording was performed at the midventricular level in the short-axis view. All images were analyzed using dedicated software (Vevo LAB version 5.7.1). LV wall thickness and internal cavity diameters at diastole (LVID;d) and systole (LVID;s) were measured. Percent LV fractional shortening (%FS) and Left Ventricular Ejection Fraction (LVEF) was calculated from M-mode measurements. To analyze cardiac diastolic function, trans-mitral flow velocity patterns and early diastolic mitral annular velocity (e’) were measured in the four-chamber view to calculate the ratio of early trans-mitral flow velocity (E) to e’ (E/e’). All procedures were performed under double-blind conditions with regard to genotype or treatment. Total RNA was extracted using a RNeasy Mini Kit (Qiagen). DNase-treated RNA was reverse-transcribed using a PrimeScript RT reagent Kit (Takara Bio). Heart tissue was homogenized using a multi-beads shocker (Yasui Kikai). Real-time quantitative RT-PCR was performed using TB Green Premix Ex Taq II (Takara Bio), and a Thermal Cycler Dice Real-Time System (Takara Bio). Relative transcript abundance was normalized to 18S rRNA levels. Primer sets used for RT-PCR are listed in Supplementary Table 3.

[5] = tested on: high-fat diet (HFD32)-fed mice; assay: Survival analysis in high-fat diet-fed mice; assay type: in vivo, mouse; details: 0.5 mg/mL in drinking water from 60 weeks old, HFD32 from 8 weeks of age
Experimental: For survival analysis under metabolic stress conditions, two-month-old C57BL/6NJcl male mice fed a high-fat diet (HFD 32: water 6.2%, protein 25.5%, fat 32.0%, ash 4.0%, carbohydrate 29.4%, fiber 2.9%, providing 507.6 kcal/100 g; CLEA) were randomly assigned to two groups: tap water only and tap water supplemented with AcA-BRB (0.5 mg/mL).

[6] = AcA-BRB 0.5 mg/mL in drinking water, 24-month-old mice, vs control
[7] = AcA-BRB 0.5 mg/mL in drinking water, aged mice

SMILES: COc1ccc2cc3n(cc-2c1=O)CCc1cc2c(cc1-3)OCO2 [Q-BRB, quinoid-type berberrubine]
- lipophilicity [1]: very high

SMILES: COc1ccc2cc3[n+](cc2c1O)CCc1cc2c(cc1-3)OCO2 [berberrubine]
- mitochondrial elongation (C2C12 cells [2]): significantly enhanced
- mitochondrial ROS (4-HNE levels in isolated mitochondrial fractions) (C2C12 cells [3]): modest increase
- blood pressure and heart rate vs control mice ([4]; 24-month-old mice, 3 months of treatment with AcA-BRB): comparable
- age-related progression of left ventricular dilatation, systolic dysfunction and diastolic dysfunction (echocardiography) ([4]; AcA-BRB 0.5 mg/mL in drinking water, 24-month-old mice, after 12 weeks, vs control): ameliorated
- cardiac hypertrophy (HW/TL ratio, histology) and pulmonary congestion (LW/TL ratio) [4, 6]: improved
- upregulation of genes associated with heart failure and cardiac fibrosis (qRT-PCR, heart) [4, 6]: blocked
- LC3A/B II/I ratio in heart tissues (western blot) [4, 7]: increase
- expression of genes associated with ROS-scavenging systems (heart) [4, 7]: upregulated
- expression of genes associated with mitochondrial biogenesis, dynamics and mitophagy (heart) [4, 7]: significantly increased
- p62 levels in heart tissues (western blot) [4, 7]: decrease
- lifespan compared with control mice [5]: significantly prolonged
